This is an account of results in patent EP3693362B1, “PARASITIC PLANT GERMINATION REGULATOR” (National University Corporation Tokai National Higher …, priority 2017, dated 2019).

Type in all cases: in vivo
One assay relates to Striga hermonthica. Briefly: Parasitic plant germination induction test (Striga hermonthica seeds). The following applies: in the dark for 2 days; for Germination rate 0.1 nM: compound concentration 0.1 nM; for Germination rate 1 nM: compound concentration 1 nM; for Germination rate 10 nM: compound concentration 10 nM. The procedure:
(§1) A parasitic plant germination induction test was conducted using the compounds synthesized in Example 1 as test compounds. The seeds of a parasitic plant (Striga hermonthica, Orobanche minor, or Phelipanche aegyptiaca) were suspended in sterilized ultrapure water, and this was dispensed in an amount of 100 µL each (containing about 20 seeds) into a 96-well plate. The test compounds or control compounds (Comparison Compound 1 or synthetic Strigolactone (GR^24: Comparison Compound 2)) dissolved in DMSO were individually added thereto to a final concentration of these compounds of 10 nM to 1 fM (1 × 10^-8 to 1 × 10^-15 M), and allowed to stand in the dark for 2 days. The presence or absence of germination was observed using a microscope, and the germination rate (i.e., number of germinated seeds/total number of seeds) was measured. The higher the germination rate in the parasitic plant germination induction test, or the higher the germination rate at lower concentration, the higher the Striga germination inducing activity.
(§2) In Tables 1 to 6, the concentrations (10 nM, 1 nM, and 0.1 nM) represent compound concentrations. In Tables 1-6, the evaluation criteria for the compounds are as follows: • ++: germination rate of 20% or more • +: germination rate of 5% or more and less than 20% • -: germination rate of less than 5% Table 1

A further assay relates to Orobanche minor. Briefly: Parasitic plant germination induction test (Orobanche minor seeds). The following applies: in the dark for 2 days. The procedure: as §1, §2
The next assay concerns Phelipanche aegyptiaca. Briefly: Parasitic plant germination induction test (Phelipanche aegyptiaca seeds). As to conditions: in the dark for 2 days. On the procedure: as §1, §2

In the case of `CC1=CC(OC(=O)NCc2ccccc2)OC1=O` (centres unmarked) [Comparison Compound 1, reference compound], in the assay with Striga hermonthica, the “Germination rate 0.1 nM” value is given as “- (germination rate of less than 5%)”, the “Germination rate 1 nM” value is given as “- (germination rate of less than 5%)” and the “Germination rate 10 nM” value is “- (germination rate of less than 5%)”.
Consider `CCCCOc1ccc(S(=O)(=O)N2CCN(C(=O)OC3C=C(C)C(=O)O3)CC2)cc1` (centres unmarked) [Compound 1], for which the “Germination rate 0.1 nM” value with Striga hermonthica is on record as “++ (germination rate of 20% or more)”; in the assay with Orobanche minor (compound concentration 0.1 nM) it was “- (germination rate of less than 5%)”. Besides, the “Germination rate 1 nM” value was “++ (germination rate of 20% or more)” in the assay on Striga hermonthica, “++ (germination rate of 20% or more)” with Orobanche minor (compound concentration 1 nM) and “- (germination rate of less than 5%)” in the assay on Phelipanche aegyptiaca (compound concentration 1 nM). The “Germination rate 10 nM” value is “++ (germination rate of 20% or more)” with Striga hermonthica; “++ (germination rate of 20% or more)” in the assay with Orobanche minor (compound concentration 10 nM); “+ (germination rate of 5% or more and less than 20%)” in the assay on Phelipanche aegyptiaca (compound concentration 10 nM).
In the case of `CCCCOc1ccc(S(=O)(=O)N2CCN(C(=O)OC3C=CC(=O)O3)CC2)cc1` (centres unmarked) [Compound 13], in the assay with Striga hermonthica, the “Germination rate 0.1 nM” value was “+ (germination rate of 5% or more and less than 20%)”; the “Germination rate 1 nM” value is listed as “++ (germination rate of 20% or more)”; the “Germination rate 10 nM” value is given as “++ (germination rate of 20% or more)”.
